In the supplement of paper PMC10307832:

Legend:
Experiment in all cases: relative viability (nuclei count vs DMSO), 5 days (fraction); higher = more cells survive
[1] = compound: Cn1cc(-c2cnn3c(N)c(Br)c([C@@H]4CCCNC4)nc23)cn1 + Nc1ncn([C@H]2C[C@H](O)[C@@H](CO)O2)c(=O)n1 [Decitabine] (partner 2 µM)
In short: (§1)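 Each reported value is a median over duplicate plates. It expresses relative viability: treated-well nuclei count divided by vehicle-well nuclei count. Lung cancer cell lines in 1536-well plates were dosed by pin tool a day after seeding, alone with one drug or with a fixed anchor-drug dose plus five library-drug doses (not always all listed) in √10 steps, and nuclei were counted after 5 days.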

[2] = compound: Cn1cc(-c2cnn3c(N)c(Br)c([C@@H]4CCCNC4)nc23)cn1 + O=C(c1cc(Cc2n[nH]c(=O)c3ccccc23)ccc1F)N1CCN(C(=O)C2CC2)CC1 [Olaparib] (partner 8 µM)
In short: as §1

[3] = compound: Cn1cc(-c2cnn3c(N)c(Br)c([C@@H]4CCCNC4)nc23)cn1 + CS(=O)(=O)CCNCc1ccc(-c2ccc3ncnc(Nc4ccc(OCc5cccc(F)c5)c(Cl)c4)c3c2)o1 [Lapatinib] (partner 2 µM)
In short: as §1

[4] = compound: Cn1cc(-c2cnn3c(N)c(Br)c([C@@H]4CCCNC4)nc23)cn1 + NC(=O)Nc1cc(-c2cccc(F)c2)sc1C(=O)N[C@H]1CCCNC1 [AZD7762] (partner 0.2 µM)
In short: as §1

Row | Cell Line | relative viability ([1]; first compound 0.05 µM) | relative viability ([1]; first compound 0.1581 µM) | relative viability ([1]; first compound 0.5 µM) | relative viability ([1]; first compound 1.581 µM) | relative viability ([1]; first compound 5 µM) | relative viability ([2]; first compound 0.05 µM) | relative viability ([2]; first compound 0.1581 µM) | relative viability ([2]; first compound 0.5 µM) | relative viability ([2]; first compound 1.581 µM) | relative viability ([2]; first compound 5 µM) | relative viability ([3]; first compound 0.05 µM) | relative viability ([3]; first compound 0.1581 µM) | relative viability ([3]; first compound 0.5 µM) | relative viability ([3]; first compound 1.581 µM) | relative viability ([3]; first compound 5 µM) | relative viability ([4]; first compound 0.05 µM) | relative viability ([4]; first compound 0.1581 µM) | relative viability ([4]; first compound 0.5 µM) | relative viability ([4]; first compound 1.581 µM) | relative viability ([4]; first compound 5 µM)
1 | LCLC-97TM1 | 0.22 | 0.297 | 0.222 | 0.278 | 0.295 | 0.346 | 0.605 | 0.327 | 0.382 | 0.38 | 0.86 | 1.3 | 0.976 | 0.915 | 0.774 | 0.296 | 0.367 | 0.264 | 0.217 | 0.222
2 | LK-2 | 0.323 | 0.337 | 0.254 | 0.272 | 0.23 | 0.664 | 0.648 | 0.771 | 0.568 | 0.373 | 1.01 | 0.878 | 0.823 | 0.757 | 0.605 | 0.303 | 0.408 | 0.33 | 0.315 | 0.209
3 | LOU-NH91 | 0.82 | 0.81 | 0.796 | 0.801 | 0.729 | 0.938 | 0.933 | 0.867 | 0.774 | 0.778 | 0.785 | 0.694 | 0.761 | 0.713 | 0.619 | 0.373 | 0.744 | 0.761 | 0.727 | 0.642
4 | LU99A | 0.912 | 0.92 | 0.875 | 0.822 | 1.01 | 0.244 | 0.235 | 0.236 | 0.221 | 0.163 | 1.04 | 1.11 | 0.998 | 0.858 | 0.611 | 0.371 | 0.392 | 0.304 | 0.264 | 0.224
5 | LXF-289 | 0.368 | 0.41 | 0.401 | 0.382 | 0.485 | 1.17 | 1.27 | 1.04 | 1.17 | 1.31 | 0.922 | 1.02 | 0.887 | 0.904 | 0.896 | 1.09 | 1.16 | 1.09 | 0.981 | 1.05
6 | NCI-H23 | 0.295 | 0.278 | 0.362 | 0.267 | 0.269 | 0.283 | 0.286 | 0.229 | 0.227 | 0.174 | 1.08 | 1.23 | 1.02 | 0.825 | 0.267 | 0.253 | 0.273 | 0.25 | 0.162 | 0.123
7 | NCI-H322M | 0.617 | 0.706 | 0.65 | 0.635 | 0.44 | 0.323 | 0.704 | 0.775 | 0.635 | 0.418 | 0.488 | 0.585 | 0.621 | 0.493 | 0.512 | 0.51 | 0.428 | 0.501 | 0.447 | 0.407
8 | NCI-H358 | 0.206 | 0.235 | 0.232 | 0.217 | 0.185 | 0.675 | 0.643 | 0.598 | 0.372 | 0.414 | 0.465 | 0.477 | 0.446 | 0.46 | 0.378 | 0.417 | – | 0.447 | 0.38 | 0.36
9 | NCI-H460 | 0.523 | 0.546 | 0.31 | 0.356 | 0.19 | 0.341 | 0.195 | 0.38 | 0.233 | 0.127 | 1.12 | 1.37 | 1.15 | 0.288 | 0.591 | 0.496 | 0.579 | 0.603 | 0.757 | 0.519
10 | NCI-H596 | 0.973 | 0.968 | 1.03 | 0.916 | 1.12 | 0.633 | 0.596 | 0.622 | 0.655 | 0.621 | 1.15 | 1.09 | 1.06 | 0.972 | 1 | 1.13 | 1.06 | 1.06 | 1.01 | 1.1
11 | NCI-H647 | 0.434 | 0.522 | 0.42 | 0.409 | 0.143 | 0.686 | 0.64 | 0.332 | 0.202 | 0.12 | 1.43 | 1.22 | 1.17 | 0.497 | 0.275 | 0.497 | 0.496 | 0.349 | 0.37 | 0.238
12 | NCI-H650 | 0.317 | 0.341 | 0.34 | 0.39 | 0.434 | 0.427 | 0.557 | 0.523 | 0.551 | 0.397 | 0.802 | 0.831 | 1.03 | 0.652 | 0.503 | 0.954 | 0.923 | 1.1 | 1.04 | 0.928
13 | NCI-H727 | 0.919 | 0.858 | 0.923 | 0.696 | 0.705 | 0.754 | 0.873 | 0.68 | 0.646 | 0.559 | 0.867 | 1.05 | 0.813 | 0.88 | 0.426 | 0.591 | 0.52 | 0.512 | 0.536 | 0.472
14 | NCI-H838 | 0.483 | 0.574 | 0.545 | 0.51 | 0.309 | 0.79 | 0.911 | 0.797 | 0.611 | 0.648 | 0.955 | 1.15 | 0.964 | 0.667 | 0.775 | 0.991 | 0.92 | 1 | 0.879 | 0.84
15 | NCI-H1355 | 0.344 | 0.332 | 0.378 | 0.417 | 0.358 | 0.811 | 0.89 | 0.788 | 0.795 | 0.69 | 1 | 1.08 | 0.92 | 0.969 | 0.859 | 0.718 | 0.846 | 0.672 | 0.623 | 0.458
16 | NCI-H1395 | 0.761 | 0.554 | 0.63 | 0.501 | 0.378 | 0.432 | 0.445 | 0.395 | 0.376 | 0.372 | 1.01 | 0.634 | 0.756 | 0.833 | 0.397 | 0.397 | 0.393 | 0.372 | 0.372 | 0.351
